Patent US10550190B2 (Merck Sharp & Dohme Corp., priority 2014, dated 2020)
Read-outs that look alike come from different tables or passages of the source. Blank lines part the entries; values can stand above or below the compound they belong to.

Assays:
[1] = In vitro stability, human whole blood incubation
[2] = In vitro stability, rat liver lysosome incubation
[3] = Solubility of drug-linkers in 20% MeCN/H2O; conditions: aqueous with cosolvent or surfactant or cyclodextrin
physchem = conditions: aqueous with cosolvent or surfactant or cyclodextrin
[4] = not given; remark: listed apart in the source
[5] = Matrix spiking (time 0 sample, lysosomes pretreated with stopping reagent)

SMILES: C[C@@H]1C[C@H]2[C@@H]3CCC4=CC(=O)C=C[C@]4(C)[C@@]3(F)[C@@H](O)C[C@]2(C)[C@@]1(O)C(=O)COP(=O)(O)OP(=O)(O)Oc1ccc(NC(=O)COC2C#CCCCCC2)cc1 (stereo partly shown) [Compound 3-4]
Calculated Conc. for each compound in human whole blood ([1]; 37° C., 0 m): 1382 nM
Calculated Conc. for each compound in human whole blood ([1]; 37° C., 5 m): 1325 nM
Calculated Conc. for each compound in human whole blood ([1]; 37° C., 15 m): 1398 nM
Calculated Conc. for each compound in human whole blood ([1]; 37° C., 30 m): 1250 nM
Calculated Conc. for each compound in human whole blood ([1]; 37° C., 1 hr): 1141 nM
Calculated Conc. for each compound in human whole blood ([1]; 37° C., 2 hr): 1703 nM
Calculated Conc. for each compound in rat lysosomal lysate ([2]; 37° C., 0 m): 1252 nM
Calculated Conc. for each compound in rat lysosomal lysate ([2]; 37° C., 5 m): 501.28 nM
Calculated Conc. for each compound in rat lysosomal lysate ([2]; 37° C., 10 m): 149.18 nM
Calculated Conc. for each compound in rat lysosomal lysate [2, 5]: 3128.83 nM
detectability of drug-linker in rat lysosomal extract (in words) ([2]; after 10 minutes incubation): no longer detectable
solubility [3]: > 10000 µg/mL

Calculated Conc. for each compound in human whole blood ([1]; 37° C., 0 m): 1687 nM
Calculated Conc. for each compound in human whole blood ([1]; 37° C., 20 m): 2409 nM
Calculated Conc. for each compound in human whole blood ([1]; 37° C., 1 hr): 2224 nM
Calculated Conc. for each compound in human whole blood ([1]; 37° C., 3 hr): 1502 nM
Calculated Conc. for each compound in human whole blood ([1]; 37° C., 6 hr): 2792 nM
Calculated Conc. for each compound in human whole blood ([1]; Matrix spiking (time 0 sample, blood pretreated with stopping reagent)): 2939 nM
Calculated Conc. for each compound in rat lysosomal lysate ([2]; 37° C., 0 m): 1456.4 nM
Calculated Conc. for each compound in rat lysosomal lysate ([2]; 37° C., 5 m): 1851.2 nM
Calculated Conc. for each compound in rat lysosomal lysate ([2]; 37° C., 10 m): 1640.8 nM
Calculated Conc. for each compound in rat lysosomal lysate ([2]; 37° C., 15 m): 1666.7 nM
Calculated Conc. for each compound in rat lysosomal lysate ([2]; 37° C., 30 m): 1602.6 nM
Calculated Conc. for each compound in rat lysosomal lysate ([2]; 37° C., 1 hr): 1576.8 nM
Calculated Conc. for each compound in rat lysosomal lysate ([2]; 37° C., 2 hr): 1681.0 nM
Calculated Conc. for each compound in rat lysosomal lysate ([2]; 37° C., 3 hr): 1689.7 nM
Calculated Conc. for each compound in rat lysosomal lysate ([2]; 37° C., 6 hr): 1689.8 nM
Calculated Conc. for each compound in rat lysosomal lysate [2, 5]: 2059.0 nM
SMILES: C[C@@H]1C[C@H]2[C@@H]3CCC4=CC(=O)C=C[C@]4(C)[C@@]3(F)[C@@H](O)C[C@]2(C)[C@@]1(O)C(=O)CO [Dexamethasone, dexamethasone, reference compound]

SMILES: C[C@@H]1C[C@H]2[C@@H]3CCC4=CC(=O)C=C[C@]4(C)[C@@]3(F)[C@@H](O)C[C@]2(C)[C@@]1(O)C(=O)COP(=O)(O)OCCNC(=O)COC1C#CCCCCC1 (stereo partly drawn) [Compound 4-3, 2-(2-(cyclooct-2-yn-1-yloxy)acetamido)ethyl (2-((8S,9R,10S,11S,13S,14S,16R,17R)-9-fluoro-11,17-dihydroxy-10,13,16-trimethyl-3-oxo-6,7,8,9,10,11,12,13,14,15,16,17-dodecahydro-3H-cyclopenta[a]phenanthren-17-yl)-2-oxoethyl) hydrogen phosphate]
Calculated Conc. for each compound in human whole blood (0 min): 1539 nM
Calculated Conc. for dexamethasone in human whole blood (20 min): 0 nM
Calculated Conc. for each compound in human whole blood (20 min): 1861 nM
Calculated Conc. for dexamethasone in human whole blood (1 h): 0 nM
Calculated Conc. for each compound in human whole blood (1 h): 1619 nM
Calculated Conc. for dexamethasone in human whole blood (3 h): 1 nM
Calculated Conc. for each compound in human whole blood (3 h): 1677 nM
Calculated Conc. for dexamethasone in human whole blood (6 h): 3 nM
Calculated Conc. for each compound in human whole blood (6 h): 2040 nM
solubility (physchem): > 10000 µg/mL
Calculated Conc. for dexamethasone in rat lysosomal lysate ([4]; 0 min): 0.9 nM
Calculated Conc. for each compound in rat lysosomal lysate ([4]; 0 min): 888.8 nM
Calculated Conc. for dexamethasone in rat lysosomal lysate ([4]; 5 min): 14.5 nM
Calculated Conc. for each compound in rat lysosomal lysate ([4]; 5 min): 1156.1 nM
Calculated Conc. for dexamethasone in rat lysosomal lysate ([4]; 10 min): 14.2 nM
Calculated Conc. for each compound in rat lysosomal lysate ([4]; 10 min): 983.4 nM
Calculated Conc. for dexamethasone in rat lysosomal lysate ([4]; 15 min): 22.3 nM
Calculated Conc. for each compound in rat lysosomal lysate ([4]; 15 min): 1032.6 nM
Calculated Conc. for dexamethasone in rat lysosomal lysate ([4]; 30 min): 28.9 nM
Calculated Conc. for each compound in rat lysosomal lysate ([4]; 30 min): 980.1 nM
Calculated Conc. for dexamethasone in rat lysosomal lysate ([4]; 1 h): 41.6 nM
Calculated Conc. for each compound in rat lysosomal lysate ([4]; 1 h): 882.4 nM
Calculated Conc. for dexamethasone in rat lysosomal lysate ([4]; 2 h): 72.5 nM
Calculated Conc. for each compound in rat lysosomal lysate ([4]; 2 h): 880.1 nM
Calculated Conc. for dexamethasone in rat lysosomal lysate ([4]; 3 h): 90.2 nM
Calculated Conc. for each compound in rat lysosomal lysate ([4]; 3 h): 903.8 nM
Calculated Conc. for dexamethasone in rat lysosomal lysate ([4]; 6 h): 141.9 nM
Calculated Conc. for each compound in rat lysosomal lysate ([4]; 6 h): 858.9 nM

SMILES: C[C@@H]1C[C@H]2[C@@H]3CCC4=CC(=O)C=C[C@]4(C)[C@@]3(F)[C@@H](O)C[C@]2(C)[C@@]1(O)C(=O)COP(=O)(O)Oc1ccc(NC(=O)COC2C#CCCCCC2)cc1 (stereo partly drawn) [Compound 5-3, 4-(2-(cyclooct-2-yn-1-yloxy)acetamido)phenyl (2-((8S,9R,10S,11S,13S,14S,16R,17R)-9-fluoro-11,17-dihydroxy-10,13,16-trimethyl-3-oxo-6,7,8,9,10,11,12,13,14,15,16,17-dodecahydro-3H-cyclopenta[a]phenanthren-17-yl)-2-oxoethyl) hydrogen phosphate]
Calculated Conc. for each compound in human whole blood ([1]; 37° C., 0 m): 1299 nM
Calculated Conc. for each compound in human whole blood ([1]; 37° C., 5 m): 1251 nM
Calculated Conc. for each compound in human whole blood ([1]; 37° C., 15 m): 1276 nM
Calculated Conc. for each compound in human whole blood ([1]; 37° C., 30 m): 1111 nM
Calculated Conc. for each compound in human whole blood ([1]; 37° C., 1 hr): 937 nM
Calculated Conc. for each compound in human whole blood ([1]; 37° C., 2 hr): 1480 nM
Calculated Conc. for each compound in rat lysosomal lysate ([2]; 37° C., 0 m): 1394.08 nM
Calculated Conc. for each compound in rat lysosomal lysate ([2]; 37° C., 5 m): 1295.86 nM
Calculated Conc. for each compound in rat lysosomal lysate ([2]; 37° C., 10 m): 1278.4 nM
Calculated Conc. for each compound in rat lysosomal lysate ([2]; 37° C., 15 m): 1407.73 nM
Calculated Conc. for each compound in rat lysosomal lysate ([2]; 37° C., 30 m): 1175.39 nM
Calculated Conc. for each compound in rat lysosomal lysate ([2]; 37° C., 1 hr): 970.65 nM
Calculated Conc. for each compound in rat lysosomal lysate ([2]; 37° C., 2 hr): 743.45 nM
Calculated Conc. for each compound in rat lysosomal lysate ([2]; 37° C., 3 hr): 500.41 nM
Calculated Conc. for each compound in rat lysosomal lysate ([2]; 37° C., 6 hr): 221.03 nM
Calculated Conc. for each compound in rat lysosomal lysate [2, 5]: 2555.29 nM
solubility [3]: > 10000 µg/mL
